How the values were obtained:
[1] = Solubility study of losartan potassium with different solubilizers and pH modifying agent; format: physicochemical; settings: losartan potassium 10 mg/mL, below pH 5.5, citrate buffer 50 mM plus solubilizer
Excerpt: The solubility of losartan potassium below pH 5.5 was checked in the presence of different solubilizers and pH modifying agent.

[2] = descriptive term; cited from earlier work

Observations (solubility of losartan potassium) [1]: insolubility
Compound: CCCCc1nc(Cl)c(CO)n1Cc1ccc(-c2ccccc2-c2nnn[nH]2)cc1.[K] [Losartan potassium, 2-butyl-4-chloro-1-[p-(o-1H-tetrazol-5-ylphenyl)benzyl]imidazole-5-methanol monopotassium salt]
Solubility in alcohols [2]: soluble | Solubility in chloroform [2]: practically insoluble | Solubility in common organic solvents, such as acetonitrile and methyl ethyl ketone [2]: slightly soluble | Solubility in water [2]: freely soluble
